Reference: patent publication US10639320B2, “Pharmaceutical composition comprising gold-containing agent for preventing or treating liver fibrosis or liver cirrhosis” (KOREA UNITED PHARM. INC., priority 2014, dated 2020)

Tests used:
RAW264.7 cells [1] = test: iNOS and TREM-2 expression by western blot in RAW264.7 cells under M1-type differentiation (LPS/IFN-γ); type: cell-based, mouse; conditions: RAW264.7 cells treated with LPS/IFN-γ (M1-type condition)
Description: (§1) Sodium dodecyl sulfate-polyacrylamide gel electrophoresis (SDS-PAGE) was performed using a gel electrophoresis apparatus (Mighty Small SE 250, Hoefer Scientific Instruments, San Francisco, USA) according to the Laemmli's protocol. A dissolved fraction of cells was diluted in a sample dilution buffer [63 mM Tris (pH.6.8), 10% glycerol, 2% SDS, 0.0013% bromophenol blue, 5% β-mercaptoethanol) and electrophoresed in an electrode buffer (containing Tris (15 g), glycerin (72 g), and SDS (5 g) in 1L solution) using 8%- and 10% gels. Upon completion of gel electrophoresis, the gel was transferred onto a nitrocellulose membrane at 40 mAmps for 3 hours in a transfer buffer solution (25 mM Tris, 192 mM glycerin, 20% v/v methanol (pH 8.3)). Each of anti-TREM-2, anti-arginase-1, anti-iNOS, anti-α-SMA, and anti-collagen-1a1, as primary antibodies, was reacted on the nitrocellulose membrane, respectively, and horseradish peroxidase-conjugated goat anti-rabbit IgG and horseradish peroxidase-conjugated goat anti-mouse IgG, as secondary antibodies, were reacted thereonto for 1 hour, and the nitrocellulose membrane was allowed to develop colors using the ECL detection system (ECL chemiluminescence system, Amersham, Gaithesberg, Mass., USA). The identity of protein contents in a sample was confirmed using anti-β-actin antibody and anti-lamin A/C. With respect to the change in the amount of protein expression, the coloration intensity was induced using a densitometry and the scanning of the densitometry was performed using the Image Scan & Analysis System, Alpha-Innotech Co. (USA). In each lane, the intensities were calculated using the AlphaEase™ version 5.5 software by subtracting background intensities.
In order to confirm whether gold-containing agents can induce the transformation into M2-type macrophages, the RAW264.7 cells, which is a mouse macrophage cell line, were treated with lipopolysaccharide (LPS)/interferon-gamma (IFN-γ), followed by treatment with auranofin in a condition for differentiation into M1-type macrophages, and the increase/decrease in expressions of iNOS and TREM-2 was confirmed by western blot analysis.
First, the RAW264.7 cells, which is a mouse macrophage cell line, were respectively treated with sodium aurothiomalate and aurothioglucose, which are analogous to auranofin, in a condition for differentiating the cells into M1-type macrophages by treating with lipopolysaccharide (LPS)/interferon-gamma (IFN-gamma), and the increase/decrease in expression of iNOS was confirmed by western blot analysis.

[2] = test system: carbon tetrachloride-induced liver fibrosis; test: Mouse model with carbon tetrachloride-induced liver fibrosis: fibrosis scores, α-SMA and collagen-1a1 in liver tissue; type: in vivo, C57BL/6J mice; conditions: 5 times a week for 3 weeks, CCl4 mouse model
Description: A mouse model with carbon tetrachloride-induced liver fibrosis was prepared by repeatedly administering 0.5 ml/kg of carbon tetrachloride to C57BL/6J mice twice a week for three weeks.
as §1, with “The identity of protein contents in a sample was confirmed using anti-β-actin antibody and anti-lamin A/C. With respect to the change in the amount of protein expression, the coloration intensity was induced using a densitometry and the scanning of the densitometry was performed using the Image Scan & Analysis System, Alpha-Innotech Co. (USA).” left out
In the case of liver tissue, a certain amount of liver tissue was homogenized in a mortar along with liquid nitrogen and a cell lysis buffer, transferred into a new tube, and vortexed. The resultant was centrifuged at 14,000 rpm and 4° C. for 20 minutes and the middle layer was collected therefrom and the protein amount was quantitated by Bradford assay. After subjecting 30 μg of the protein to electrophoresis by SDS-PAGE, the change in the expression of α-SMA protein was measured by western blot analysis. […]

MEF cells = test: α-SMA expression by western blot in MEF cells treated with medium of auranofin-treated RAW264.7 cells; type: cell-based, mouse; conditions: MEF cells treated with medium from treated RAW264.7 cells
Description: as §1, with “The identity of protein contents in a sample was confirmed using anti-β-actin antibody and anti-lamin A/C. With respect to the change in the amount of protein expression, the coloration intensity was induced using a densitometry and the scanning of the densitometry was performed using the Image Scan & Analysis System, Alpha-Innotech Co. (USA).” left out, “intensities. […]” for “intensities.”

RAW264.7 cells [3] = test: Arginase-1 expression by western blot in RAW264.7 cells under M2-type differentiation (IL-4); type: cell-based, mouse; conditions: RAW264.7 cells treated with IL-4 (M2-type condition)
Description: as §1, with “The identity of protein contents in a sample was confirmed using anti-β-actin antibody and anti-lamin A/C. With respect to the change in the amount of protein expression, the coloration intensity was induced using a densitometry and the scanning of the densitometry was performed using the Image Scan & Analysis System, Alpha-Innotech Co. (USA).” left out, “intensities. […]” for “intensities.”

| SMILES | expression of TREM-2 (RAW264.7 cells [1]) | expression of iNOS (RAW264.7 cells [1]) | liver fibrosis scores ([2]; 10 mg/kg oral, H&E staining) | expression of collagen-1a1 in liver tissue ([2]; oral 1, 3 and 10 mg/kg) | expression of α-SMA in liver tissue ([2]; oral 1, 3 and 10 mg/kg) | expression of α-SMA (MEF cells) | expression of arginase-1 (RAW264.7 cells [3]) |
| --- | --- | --- | --- | --- | --- | --- | --- |
| CC[PH](CC)(CC)[Au][S][C@@H]1O[C@H](COC(C)=O)[C@@H](OC(C)=O)[C@H](OC(C)=O)[C@H]1OC(C)=O [auranofin, 2,3,4,6-tetra-O-acetyl-1-thio-β-D-glucopyranosato-S-[triethylphosphine] gold] | increasing | inhibited | significantly lowered | apparently reduced | apparently reduced | inhibited |  |
| OC[C@H]1O[C@H]([S-])[C@H](O)[C@@H](O)[C@@H]1O.[Au+] [aurothioglucose] |  | inhibited |  |  |  |  | increased |
| O=C([O-])CC([S-])C(=O)[O-].[Au+].[Na+].[Na+] (stereo not shown) [sodium aurothiomalate] |  | inhibited |  |  |  |  | increased |
